The text below walks through data of US9364543B2, “Visible light curable hydrogels and methods for using” (Indiana University Research and Technology Corporation, priority 2012, dated 2016).

Where two headings read alike, the source gives them in different places.

For series [1] the following is noted: cited from earlier work.
For series [2] the following is noted: cited from earlier work. The source holds these as a separate data set.
Series [3] can be described thus: Eosin-Y release and retention in thiol-ene hydrogels. The format is physicochemical. Particulars: for eosin-Y retention in thiol-ene hydrogels: after 48 hours of swelling. The procedure:
EXAMPLE. Eosin-Y retention: PEG4NB-DTT hydrogel discs (8 mm in diameter and 1 mm in height) are fabricated. Immediately after polymerization, each hydrogel (8 mm in diameter and 1 mm in height) is immersed into a scintillation vial containing 2 mL of ddH2O. Three separate samples are prepared per experimental condition. These scintillation vials are capped tightly and stored at 37° C. on an orbital shaker. At specific time points, these vials are swirled manually to ensure homogeneous mix and 200 μL of solution is transferred to a well of a transparent 96-well plate. The buffer is changed at every time point. The absorbance (at 515 nm) of the collected samples is determined using a microplate reader (Biotek). Eosin-Y retention was calculated by generating a standard curve prepared from a series of known eosin-Y concentrations (0.02 mM being the highest).

[4] abbreviates: post-gelation, pH 7.4 PBS, FIG. 10.

Take `CC(C)(O)C(=O)c1ccc(OCCO)cc1` [I-2959]: the “molar absorptivity (ε)” value in series [1] (at 365 nm) was less than 10 M⁻¹ cm⁻¹. Also, the water solubility in series [2] was less than 0.5 wt %.
For `Cc1cc(C)c(C(=O)P(=O)([O-])c2ccccc2)c(C)c1.[Li+]` [LAP, lithium arylphosphinate], the “molar absorptivity (ε)” value is approximately 200 M⁻¹ cm⁻¹ in series [1] (at 365 nm) and approximately 30 M⁻¹ cm⁻¹ in series [1] (at 405 nm). Besides, the water solubility in series [2] is listed as more than 5 wt %.
For the compound `O=C([O-])c1ccccc1-c1c2cc(Br)c(=O)c(Br)c-2oc2c(Br)c([O-])c(Br)cc12.[Na+].[Na+]` [eosin-Y, Eosin-Y disodium salt], in series [3] (setting [4]), the “time in which most of the eosin-Y was released from the hydrogel” value was 0.5 h. Besides, in series [3] (setting [4]), the “time to complete release of eosin-Y from the hydrogel” value stood at 6 h. The “eosin-Y retention in thiol-ene hydrogels” value in series [3] (starting eosin-Y concentration 0.1 mM) was approximately 0.004 µmol; in series [3] (starting eosin-Y concentration 2.0 mM), approximately 0.03 µmol.
